Patent publication US20230348426A1, “OXOPYRROLIDINE FPR2 AGONISTS” (Bristol-Myers Squibb Company, priority 2020, published 2023)

How the values were obtained:
human FPR2 = human FPR2 (Homo sapiens (Human), UniProt P25090); assay: FPR2 cyclic adenosine monophosphate (cAMP) assay; format: cell-based; settings: CHO cells overexpressing human FPR2; forskolin 5 µM; inhibition of cAMP production; read-out: hFPR2 cAMP2 EC50
Summary of the method: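 Inhibition of forskolin-driven (5 µM) cAMP, with 200 µM IBMX, measured in human FPR2-expressing CHO cells, 2,000 per well, 30 min at room temperature; compounds tested 0.020 nM to 100 µM in 1% DMSO. HTRF 665/590 ratio converted to cAMP via calibration curve, then 4-parameter fit.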

human FPR1 = human FPR1 (Homo sapiens (Human), UniProt P21462); assay: FPR1 cyclic adenosine monophosphate (cAMP) assay; format: cell-based; settings: CHO cells overexpressing human FPR1; forskolin 10 µM; inhibition of cAMP production; read-out: hFPR1 cAMP EC50
human FPR1, sequence (P21462 whole entry): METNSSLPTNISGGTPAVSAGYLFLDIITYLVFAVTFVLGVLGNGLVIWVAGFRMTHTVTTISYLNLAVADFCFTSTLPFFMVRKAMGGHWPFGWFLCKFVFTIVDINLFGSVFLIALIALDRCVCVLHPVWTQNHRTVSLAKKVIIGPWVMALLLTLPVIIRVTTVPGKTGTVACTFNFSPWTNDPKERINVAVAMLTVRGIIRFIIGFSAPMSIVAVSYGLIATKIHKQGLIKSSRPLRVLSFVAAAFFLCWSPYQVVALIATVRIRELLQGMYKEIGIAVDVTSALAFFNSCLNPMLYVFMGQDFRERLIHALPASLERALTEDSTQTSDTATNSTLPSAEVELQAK
Summary of the method: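 Human FPR1-expressing CHO cells were used at 4,000 per well, with compound at 0.020 nM–100 µM in 1% DMSO. Potency came from a 4-parameter logistic fit.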

human FPR2, sequence (P25090 whole entry): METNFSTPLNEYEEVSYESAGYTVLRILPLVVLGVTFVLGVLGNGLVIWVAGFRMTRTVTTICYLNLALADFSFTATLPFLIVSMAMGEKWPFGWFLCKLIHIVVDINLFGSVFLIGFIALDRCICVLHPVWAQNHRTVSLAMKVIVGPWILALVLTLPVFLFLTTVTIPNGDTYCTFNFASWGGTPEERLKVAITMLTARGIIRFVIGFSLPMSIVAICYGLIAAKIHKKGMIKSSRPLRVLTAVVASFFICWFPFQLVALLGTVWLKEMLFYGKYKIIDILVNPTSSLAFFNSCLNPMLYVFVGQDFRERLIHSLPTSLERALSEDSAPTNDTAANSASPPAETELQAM

Row | Compound | EC50 (human FPR2) [nM] | EC50 (human FPR1) [nM]
1 | COc1cc(F)c([C@@H]2CN(c3c(C)ccn(C(F)(F)CO)c3=O)C(=O)[C@H]2NC(=O)c2ccc(OC(F)F)cc2)c(F)c1 [Example 454] | 4.4 | 17
2 | COc1cc(F)c([C@@H]2CN(c3c(C)ccn(CC#N)c3=O)C(=O)[C@H]2NC(=O)c2ccc(OC(F)(F)F)cc2)c(F)c1 [Example 455] | 2.9 | 10
3 | COc1cc(F)c([C@@H]2CN(c3c(C)ccn(CC4CCOCC4)c3=O)C(=O)[C@H]2NC(=O)c2ccc(OC(F)(F)F)cc2)c(F)c1 [Example 456] | 2.8 | 1
4 | COc1cc(F)c([C@@H]2CN(c3c(C)ccn(CC4CCOCC4)c3=O)C(=O)[C@H]2NC(=O)c2ccc(OC(F)F)cc2)c(F)c1 [Example 457] | 3.2 | 2
5 | COc1cc(F)c([C@@H]2CN(c3c(C)ccn(C4CCC4)c3=O)C(=O)[C@H]2NC(=O)c2ccc(OC(F)(F)F)cc2)c(F)c1 [Example 458] | 1.2 | 0.8
6 | COc1ccc([C@@H]2CN(c3c(C)ccn(CC4CC4)c3=O)C(=O)[C@H]2NC(=O)c2ccc(OC(F)F)cc2)cc1 [Example 459] | 0.9 | 0.2
7 | CCn1c2c(cc(N3C[C@@H](c4c(F)cc(OC)cc4F)[C@H](NC(=O)c4ccc(OC(F)F)cc4)C3=O)c1=O)CCCC2 [Example 460] | 1.4 | 1
8 | COCCn1c2c(cc(N3C[C@@H](c4c(F)cc(OC)cc4F)[C@H](NC(=O)c4ccc(Cl)cc4)C3=O)c1=O)CCCC2 [Example 461] | 3.7 | 3
9 | COc1cc(F)c([C@@H]2CN(c3c(C)ccn(C4COC4)c3=O)C(=O)[C@H]2NC(=O)c2ccc(OC(F)(F)F)cc2)c(F)c1 [Example 463] | 3.9 | 6
10 | CCn1c2c(cc(N3C[C@@H](c4c(F)cc(OC)cc4F)[C@H](NC(=O)c4ccc(Cl)cc4)C3=O)c1=O)CCCC2 [Example 464] | 1.6 | 4
11 | COc1ccc([C@@H]2CN(c3cccn(CC(O)C(F)(F)F)c3=O)C(=O)[C@H]2NC(=O)c2ccc(OC(F)F)cc2)c(F)c1 (some centres unmarked) [Example 465] | 2.9 | 13
12 | COc1cc(F)c([C@@H]2CN(c3ccnn(CC(O)C(F)(F)F)c3=O)C(=O)[C@H]2NC(=O)c2ccc(OC(F)(F)F)cc2)c(F)c1 (some centres unmarked) [Example 466] | 3 | 4
13 | COc1cc(F)c([C@@H]2CN(c3cncn(CC(C)O)c3=O)C(=O)[C@H]2NC(=O)c2ccc(OC(F)F)cc2)c(F)c1 (some centres unmarked) [Example 467] | 1.8 | 1500
14 | COc1cc(F)c([C@@H]2CN(c3ccnn(CCC(F)(F)F)c3=O)C(=O)[C@H]2NC(=O)c2ccc(OC(F)F)cc2)c(F)c1 [Example 468] | 2.1 | 18
15 | COc1cc(F)c([C@@H]2CN(c3c(C)ccn(CCS(C)(=O)=O)c3=O)C(=O)[C@H]2NC(=O)c2ccc(OC(F)(F)F)cc2)c(F)c1 [Example 469] | 1.4 | 2
16 | COc1cc(F)c([C@@H]2CN(c3c(C)ccn(CCS(C)(=O)=O)c3=O)C(=O)[C@H]2NC(=O)c2ccc(OC(F)F)cc2)c(F)c1 [Example 470] | 1.9 | 8
17 | COCCn1ncc(C)c(N2C[C@@H](c3c(F)cc(OC)cc3F)[C@H](NC(=O)c3ccc(OC(F)(F)F)cc3)C2=O)c1=O [Example 471] | 1.1 | 2
18 | COCCn1ncc(C)c(N2C[C@@H](c3c(F)cc(OC)cc3F)[C@H](NC(=O)c3ccc(OC(F)F)cc3)C2=O)c1=O [Example 472] | 1.2 | 1.7
19 | COc1cc(F)c([C@@H]2CN(c3ccnn(CC(F)F)c3=O)C(=O)[C@H]2NC(=O)c2ccc(OC(F)(F)F)cc2)c(F)c1 [Example 473] | 1.8 | 2

Row | Compound | EC50 (human FPR2) [nM] | EC50 (human FPR1) [nM]
20 | COc1cc(F)c([C@@H]2CN(c3ccnn(CC(F)F)c3=O)C(=O)[C@H]2NC(=O)c2ccc(OC(F)F)cc2)c(F)c1 [Example 474] | 2.1 | 4
21 | COc1cc(F)c([C@@H]2CN(c3ccnn(CC(O)C(F)(F)F)c3=O)C(=O)[C@H]2NC(=O)c2ccc(OC(F)F)cc2)c(F)c1 (some centres unmarked) [Example 475] | 2 | 20
22 | COCC(CO)n1nccc(N2C[C@@H](c3c(F)cc(OC)cc3F)[C@H](NC(=O)c3ccc(OC(F)F)cc3)C2=O)c1=O (some centres unmarked) [Example 476] | 1.7 | 14
23 | COCC(CO)n1nccc(N2C[C@@H](c3c(F)cc(OC)cc3F)[C@H](NC(=O)c3ccc(Cl)cc3)C2=O)c1=O (some centres unmarked) [Example 477] | 1 | 13
24 | COc1cc(F)c([C@@H]2CN(c3c(C)ccn(C4CCOCC4)c3=O)C(=O)[C@H]2NC(=O)c2ccc(OC(F)(F)F)cc2)c(F)c1 [Example 478] | 5.9 | 1
25 | COc1cc(F)c([C@@H]2CN(c3c(C)ccn(C4CCOC4)c3=O)C(=O)[C@H]2NC(=O)c2ccc(OC(F)F)cc2)c(F)c1 (some centres unmarked) [Example 479] | 9.4 | 5
26 | COc1cc(F)c([C@@H]2CN(c3nccc(N4CCC(C)(O)C4)c3C(F)(F)F)C(=O)[C@H]2NC(=O)c2ccc(Cl)cc2)c(F)c1 (some centres unmarked) [Example 480] | 5.7 | 300
27 | COc1cc(F)c([C@@H]2CN(c3nccc(N4CCN5CCCC5C4)c3C(F)(F)F)C(=O)[C@H]2NC(=O)c2ccc(Cl)cc2)c(F)c1 (some centres unmarked) [Example 481] | 1.2 | 2200
28 | COCC(C(=O)N1CC2(COC2)C1)n1cccc(N2C[C@@H](c3c(F)cc(OC)cc3F)[C@H](NC(=O)c3ccc(OC(F)(F)F)cc3)C2=O)c1=O (some centres unmarked) [Example 482] | 2.5 | 1
29 | COc1cc(F)c([C@@H]2CN(c3c(C)ccn(CC(O)C(F)(F)F)c3=O)C(=O)[C@H]2NC(=O)c2ccc(Cl)cc2)c(F)c1 (some centres unmarked) [Example 483] | 5.6 | 16
30 | COCCN1CCCC(N2C[C@@H](c3c(F)cc(OC)cc3F)[C@H](NC(=O)c3ccc(OC(F)(F)F)cc3)C2=O)C1=O (some centres unmarked) [Example 484] | 3 | 420
31 | COCC(C(=O)N1CCCC1)n1cccc(N2C[C@@H](c3c(F)cc(OC)cc3F)[C@H](NC(=O)c3ccc(OC(F)F)cc3)C2=O)c1=O (some centres unmarked) [Example 485] | 1.7 | 2
32 | COc1cc(F)c([C@@H]2CN(c3cncn(CC(O)C(F)(F)F)c3=O)C(=O)[C@H]2NC(=O)c2ccc(Cl)cc2)c(F)c1 (some centres unmarked) [Example 486] | 4.3 | 36
33 | COc1cc(F)c([C@@H]2CN(c3cncn(CCC(F)(F)F)c3=O)C(=O)[C@H]2NC(=O)c2ccc(OC(F)F)cc2)c(F)c1 [Example 487] | 1.9 | 720
34 | COc1cc(F)c([C@@H]2CN(c3cncn(CCO)c3=O)C(=O)[C@H]2NC(=O)c2ccc(OC(F)F)cc2)c(F)c1 [Example 488] | 2.6 | 790
35 | COc1cc(F)c([C@@H]2CN(c3c(C)ccn(CC(O)C(F)(F)F)c3=O)C(=O)[C@H]2NC(=O)c2ccc(OC(F)F)cc2)c(F)c1 (some centres unmarked) [Example 489] | 0.7 | 5
36 | COc1cc(F)c([C@@H]2CN(c3c(C)ccn(C(F)(F)CO)c3=O)C(=O)[C@H]2NC(=O)c2ccc(OC(F)(F)F)cc2)c(F)c1 [Example 490] | 1 | 1
37 | COCCN1CCC(c2cc(OC)cc(N3C(=O)[C@@H](NC(=O)c4ccc(OC(F)F)cc4)[C@H](c4c(F)cc(OC)cc4F)[C@@H]3C)n2)CC1 [Example 491] | 1.8 | > 5000
